Measurements reported in patent publication US20030215817A1, “Modulation of gene expression in formation of fatty atherosclerotic lesions” (priority 2003, published 2003).

Key:
Format in all cases: in vivo, rabbit
[1] = test system: REC1_1 (MspI AAGC 288) mRNA, TYRO protein tyrosine kinase binding p; experiment: TOGA analysis, REC1_1; details: REC1_1, AAGC 288; rabbit aorta; 14 days cholesterol + (R)-enantiomer
Experimental: (§1) To perform the studies, New Zealand male rabbits weighing 2.0-2.5 kg (Charles River, Calco, Italy) were used. The rabbits were divided into three groups and maintained in identical experimental conditions: (1) control group (n=15); rabbits fed a cholesterol-rich diet; (2) lercanidipine-treated group (n=15); rabbits fed a cholesterol-rich diet and also treated with lercanidipine (3 mg/kg/week); and (3) (R)-lercanidipine-treated group (n=5); rabbits fed a cholesterol-rich diet and also treated with the (R)-enantiomer of lercanidipine (3 mg/kg/week). After a 2 week period of subcutaneous, once a week, pretreatment with 3 mg/kg/week of lercanidipine or (R)-lercanidipine, the rabbits received a daily cholesterol supplement for up to 8 weeks or 2 weeks, respectively. In the following examples, use of the term “lercanidipine” refers to the racemic mixture of lercanidipine hydrochloride, whereas “(R)-lercanidipine” refers to the (R)-enantiomer of lercanidipine hydrochloride.
(§2) The mRNA from the above-described groups was isolated from aorta at different time points, resulting in the following mRNA samples: (1) Day 0 Control=no administered cholesterol, no lercanidipine; (2) Day 0+lercanidipine=no administered cholesterol, treatment with lercanipidine (2 weeks; 3 mg/kg/week); (3) Day 14 Control=cholesterol diet for two weeks, no lercanidipine; (4) Day 14+lercanidipine=cholesterol diet for two weeks, treatment with lercanidipine (four weeks; 3 mg/kg/week); (5) Week 8 Control=cholesterol diet for 8 weeks, no lercanidipine; and (6) Week 8+lercanidipine=cholesterol diet for 8 weeks, treatment with lercanidipine (10 weeks; 3 mg/kg/week). In addition, Day 14+(R)-lercanidipine mRNA samples were prepared from rabbits given a cholesterol diet for two weeks and treated with 3 mg/kg/week (R)-lercanidipine for four weeks.
(§3) Aorta mRNAs were prepared in the following manner. First, the aortas from each experimental group were retrieved and shredded using a polytron homogenizer. The samples were further homogenized using a teflon pestle, after which the cellular debris, nuclei, and blood cells were pelleted by centrifugation. The supernatants were extracted twice with phenol-chloroform-isoamyl alcohol and once with chloroform-isoamyl alcohol. RNA was then precipitated from the aqueous phase with ethanol. The poly A+ mRNA was prepared using standard methods of polyA selection known in the art (Schriber et al., J. Mol. Biol., 142:93-116 (1980)).
(§4) The isolated mRNA was analyzed using a method of simultaneous sequence-specific identification of mRNAs known as TOGA, described in U.S. Pat. No. 5,459,037 and U.S. Pat. No. 5,807,680, hereby incorporated herein by reference. In a preferred embodiment, the TOGA method further comprised an additional PCR step performed using a mixture of four 5′ PCR primers and cDNA templates prepared from a population of antisense cRNAs. A final PCR step that used a mixture of 256 5′ PCR primers produced PCR products that were cDNA fragments that corresponded to the 3′-region of the starting mRNA population. The produced PCR products were then identified by: (a) the initial 5′ sequence comprising the sequence remainder of the recognition site of the restriction endonuclease used to cut and isolate the 3′ region plus the sequence of the preferably four parsing bases immediately 3′ to the remainder of the recognition site, preferably the sequence of the entire fragment; and (b) the length of the fragment. These two parameters, sequence and fragment length, were used to compare the obtained PCR products to a database of known polynucleotide sequences. Since the length of the obtained PCR products includes known vector sequences at the 5′ and 3′ ends of the insert, the sequence of the insert provided in the sequence listing is shorter than the fragment length that forms part of the digital address.
(§5) The method yields Digital Sequence Tags (DSTs), that is, polynucleotides that are expressed sequence tags of the 3′ end of mRNAs. […]

[2] = test system: REC1_6 (MspI ATCC 176) mRNA, ferritin light chain subunit; experiment: TOGA analysis, REC1_6; details: REC1_6, ATCC 176; rabbit aorta; 14 days cholesterol + (R)-enantiomer
Experimental: as §1, §2, §3
as §4, with “These two parameters, sequence and fragment length, were used to compare the obtained PCR products to a database of known polynucleotide sequences. Since the length of the obtained PCR products includes known vector sequences at the 5′ and 3′ ends of the insert, the sequence of the insert provided in the sequence listing is shorter than the fragment length that forms part of the digital address.” left out

[3] = test system: REC1_7 (MspI CACA 282) mRNA; experiment: TOGA analysis, REC1_7; details: REC1_7, CACA 282; rabbit aorta; 14 days cholesterol + (R)-enantiomer
Experimental: as §1, §2, §3, §4, §5

[4] = test system: REC1_12 (GCCC 232) mRNA, alpha smooth muscle actin; experiment: TOGA analysis, REC1_12; details: REC1_12 GCCC 232; rabbit aorta, 14 days cholesterol
Experimental: as §1, §2, §3
as §4, with “These two parameters, sequence and fragment length, were used to compare the obtained PCR products to a database of known polynucleotide sequences. Since the length of the obtained PCR products includes known vector sequences at the 5′ and 3′ ends of the insert, the sequence of the insert provided in the sequence listing is shorter than the fragment length that forms part of the digital address.” left out

[5] = test system: REC1_22 (digital address TGGG 164) mRNA; experiment: TOGA analysis, REC1_22; details: REC1_22 TGGG 164; rabbit aorta, cholesterol 14 days
Experimental: as §1, §2, §3, §4, §5

[6] = test system: REC1_24 (digital address CCGG 232) mRNA; experiment: TOGA analysis, REC1_24; details: REC1_24 CCGG 232; rabbit aorta, 14 days cholesterol
Experimental: as §1, §2, §3, §4, §5

[7] = test system: REC1_28 (digital address CGGT 101) mRNA, calgizzarin; experiment: TOGA analysis, REC1_28; details: REC1_28 CGGT 101; rabbit aorta, 14 days cholesterol
Experimental: as §1, §2, §3, §4, §5

[8] = test system: REC1_31 (digital address TGCA 210) mRNA, mitochondrial genome; experiment: TOGA analysis, REC1_31; details: REC1_31 TGCA 210; rabbit aorta, cholesterol 14 days
Experimental: as §1, §2, §3, §4, §5

[9] = test system: REC1_33 (digital address CCGA 96) mRNA, as1_casein gene; experiment: TOGA analysis, REC1_33; details: REC1_33 CCGA 96; rabbit aorta, 14 days cholesterol
Experimental: as §1, §2, §3, §4, §5

[10] = test system: REC1_34 (digital address CGGT 209) mRNA; experiment: TOGA analysis, REC1_34; details: REC1_34 CGGT 209; rabbit aorta, 14 days cholesterol
Experimental: as §1, §2, §3, §4, §5

[11] = test system: REC1_37 (digital address TTCA 264) mRNA, ribosomal protein L15; experiment: TOGA analysis, REC1_37; details: REC1_37 TTCA 264; rabbit aorta, cholesterol 14 days
Experimental: as §1, §2, §3, §4, §5

`COC(=O)C1=C(C)NC(C)=C(C(=O)OC(C)(C)CN(C)CCC(c2ccccc2)c2ccccc2)[C@@H]1c1cccc([N+](=O)[O-])c1` [Lercanidipine (R)] was tested, and the “level of gene expression (TOGA), 14 Day hypercholesterol + Lercanidipine (R)” value (“level of gene expression (TOGA)” below) [1] was 872, the “level of gene expression (TOGA)” value [2] was 365 and the “level of gene expression (TOGA)” value [3] was 683. The “level of gene expression, 14 Day hypercholesterol + Lercanidipine (R)” value [4] was 3993, the “level of gene expression, 14 Day hypercholesterol + Lercanidipine (R)” value [5] was 47 and the “level of gene expression, 14 Day hypercholesterol + Lercanidipine (R)” value [6] was 139. The “level of gene expression, 14 Day hypercholesterol + Lercanidipine (R)” value [7] was 864, the “level of gene expression, 14 Day hypercholesterol + Lercanidipine (R)” value [8] was 28 and the “level of gene expression, 14 Day hypercholesterol + Lercanidipine (R)” value [9] was 170. The “level of gene expression, 14 Day hypercholesterol + Lercanidipine (R)” value [10] was 58 and the “level of gene expression, 14 Day hypercholesterol + Lercanidipine (R)” value [11] was 42.
